# Data taken from patent US8748417B2, “Amino-pyrrolidine-azetidine diamides as monoacylglycerol lipase inhibitors” (Janssen Pharmaceutica, NV, priority 2010, dated 2014).
# Residue numbers refer to the chain shown, from its start.
# Key:
# [1] = molecular target: T1, purified wild type MGL (wt-MGLL 6H-11-313) (Homo sapiens, UniProt Q99685); assay: MGL enzyme activity assay (4MU-B cleavage), wild type MGL; assay type: biochemical; settings: wild type MGL 5 nM, 4MU-B 10 μM, 37° C.; read-out: MGL wild type inh IC50
# T1 construct: purified wild type MGL (wt-MGLL 6H-11-313)
# T1 sequence (Q99685 1-303): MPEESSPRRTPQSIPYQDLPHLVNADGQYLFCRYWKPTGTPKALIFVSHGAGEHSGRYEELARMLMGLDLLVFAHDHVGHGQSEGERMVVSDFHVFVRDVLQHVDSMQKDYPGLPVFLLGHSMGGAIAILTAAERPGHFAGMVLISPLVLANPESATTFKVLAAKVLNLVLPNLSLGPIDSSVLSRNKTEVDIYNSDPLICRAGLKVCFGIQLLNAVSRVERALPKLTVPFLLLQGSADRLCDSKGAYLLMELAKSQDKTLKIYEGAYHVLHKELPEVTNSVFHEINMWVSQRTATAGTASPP
# Summary of the method: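 Enzyme in 20 mM PIPES pH 7.0, 150 mM NaCl, 0.001% Tween 20 with 4MU-B at 10 μM final and MGL at 5 nM final; compounds 17 to 0.0003 μM final, enzyme added last. Fluorescence (ex 335/em 440 nm) followed at 37° C for 5 min; IC50 from fit of fractional activity versus inhibitor concentration.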
# mutant MGL = molecular target: T2, mutant MGL (Homo sapiens, UniProt Q99685, L169S/L176S); assay: MGL ThermoFluor assay - mutant; assay type: binding; settings: qNMR-corrected compound concentration; read-out: MGL mutant ThermoFluor qKd
# T2 construct: purified mutant MGL (mut-MGLL 11-313 L179S L186S)
# T2 sequence (Q99685 1-303 L169S/L176S): T1 sequence (Q99685 1-303) with L169S, L176S
# Method: The ThermoFluor (TF) assay is a 384-well plate-based binding assay that measures thermal stability of proteins^1,2. The experiments were carried out using instruments available from Johnson & Johnson Pharmaceutical Research & Development, LLC. TF dye used in all experiments was 1,8-ANS (Invitrogen: A-47). Final TF assay conditions used for MGL studies were 0.07 mg/ml of mutant MGL, 100 μM ANS, 200 mM NaCl, 0.001% Tween-20 in 50 mM PIPES (pH=7.0).
# Screening compound plates contained 100% DMSO compound solutions at a single concentration. For follow-up concentration-response studies, compounds were arranged in a pre-dispensed plate (Greiner Bio-one: 781280), wherein compounds were serially diluted in 100% DMSO across 11 columns within a series. Columns 12 and 24 were used as DMSO reference and contained no compound. For both single and multiple compound concentration-response experiments, the compound aliquots (46 nL) were robotically predispensed directly into 384-well black assay plates (Abgene: TF-0384/k) using the Hummingbird liquid handler. Following compound dispension, protein and dye solutions were added to achieve the final assay volume of 3 μL. The assay solutions were overlayed with 1 μL of silicone oil (Fluka, type DC 200: 85411) to prevent evaporation.
# Bar-coded assay plates were robotically loaded onto a thermostatically controlled PCR-type thermal block and then heated from 40 to 90° C. degrees at a ramp-rate of 1° C./min for all experiments. Fluorescence was measured by continuous illumination with UV light (Hamamatsu LC6), supplied via fiber optics and filtered through a band-pass filter (380-400 nm; >6 OD cutoff). Fluorescence emission of the entire 384-well plate was detected by measuring light intensity using a CCD camera (Sensys, Roper Scientific) filtered to detect 500±25 nm, resulting in simultaneous and independent readings of all 384 wells. A single image with 20-sec exposure time was collected at each temperature, and the sum of the pixel intensity in a given area of the assay plate was recorded vs temperature and fit to standard equations to yield the Tm^1. • 1. Pantoliano, M. W., Petrella, E. C., Kwasnoski, J. D., Lobanov, V. S., Myslik, J., Graf, E., Carver, T., Asel, E., Springer, B. A., Lane, P., and Salemme, F. R. (2001) J Biomol Screen 6, 429-40. • 2. Matulis, D., Kranz, J. K., Salemme, F. R., and Todd, M. J. (2005) Biochemistry 44, 5258-66.
# The Kd values for certain compounds of Formula (I) were determined from a fit of the equation to the concentration-response plot of the fractional activity as a function of […]. For some experiments, quantitative NMR spectroscopy (qNMR) was used to measure concentration of the initial 100% DMSO compound solutions and, using the same fitting method, qKd values were determined.
# [2] = test system: MGL (rat brain homogenate); assay: 2-AG accumulation assay in rat brain homogenate; assay type: biochemical; settings: compound 1 μM, percent of vehicle 2-AG accumulation
# Summary of the method: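 Rat brain homogenate was incubated with compound for 15 min at 37° C., after which CaCl2 was added to a final concentration of 10 mM and incubation continued for 15 min at 37° C. in 5 mL total. Reactions were stopped with 6 mL of 2:1 chloroform/methanol, and 2-AG accumulated in the organic phase was quantified by HPLC/MS.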
IC50 [1] [nM],Kd (mutant MGL) [nM],Structure (SMILES),Rat Brain 2AG % VehCntrl (%) @1 μM [2] [%]
1680,3240,"CN(C(=O)Cn1ccc2cc(C(=O)N3CC(N[C@H]4CCN(C(=O)c5nccs5)C4)C3)ccc21)c1ccccc1 [Cpd 222, N-Methyl-N-phenyl-2-{5-[(3-{[(3S)-1-(1,3-thiazol-2-ylcarbonyl)pyrrolidin-3-yl]amino}azetidin-1-yl)carbonyl]-1H-indol-1-yl}acetamide]",–
50.4,264,"O=C(c1ccc2c(-c3cccc(F)c3)c[nH]c2c1)N1CC(N[C@H]2CCN(C(=O)c3cscn3)C2)C1 [Cpd 203, (3S)-N-(1-{[3-(3-Fluorophenyl)-1H-indol-6-yl]carbonyl}azetidin-3-yl)-1-(1,3-thiazol-4-ylcarbonyl)pyrrolidin-3-amine]",238
14,143,"O=C(c1nccs1)N1CC[C@H](NC2CN(C(=O)c3ccc4c(ccn4-c4ccc(F)cc4)c3Cl)C2)C1 [Cpd 223, (3S)-N-(1-{[4-Chloro-1-(4-fluorophenyl)-1H-indol-5-yl]carbonyl}azetidin-3-yl)-1-(1,3-thiazol-2-ylcarbonyl)pyrrolidin-3-amine]",–
94.5,462,"O=C(c1nccs1)N1CC[C@H](NC2CN(C(=O)c3cccc4c3CCN4c3ccc(F)cc3)C2)C1 [Cpd 216, (3S)-N-(1-{[1-(4-Fluorophenyl)-2,3-dihydro-1H-indol-4-yl]carbonyl}azetidin-3-yl)-1-(1,3-thiazol-2-ylcarbonyl)pyrrolidin-3-amine]",260
4980,4980,"O=C(c1nccs1)N1CC[C@H](NC2CN(C(=O)c3cn(-c4ccc(F)cc4)c4ccccc34)C2)C1 [Cpd 219, (3S)-N-(1-{[1-(4-Fluorophenyl)-1H-indol-3-yl]carbonyl}azetidin-3-yl)-1-(1,3-thiazol-2-ylcarbonyl)pyrrolidin-3-amine]",–
106,530,"O=C(c1nccs1)N1CC[C@H](NC2CN(C(=O)c3cccc4c3ccn4-c3ccc(F)cc3)C2)C1 [Cpd 214, (3S)-N-(1-{[1-(4-Fluorophenyl)-1H-indol-4-yl]carbonyl}azetidin-3-yl)-1-(1,3-thiazol-2-ylcarbonyl)pyrrolidin-3-amine]",524
224,218,"Cc1cc2c(ccn2-c2ccc(F)cc2)cc1C(=O)N1CC(N[C@H]2CCN(C(=O)c3nccs3)C2)C1 [Cpd 224, (3S)-N-(1-{[1-(4-Fluorophenyl)-6-methyl-1H-indol-5-yl]carbonyl}azetidin-3-yl)-1-(1,3-thiazol-2-ylcarbonyl)pyrrolidin-3-amine]",–
1390,963,"O=C(c1ccc2c(ccn2CC(F)F)c1)N1CC(N[C@H]2CCN(C(=O)c3nccs3)C2)C1 [Cpd 213, (3S)-N-(1-{[1-(2,2-Difluoroethyl)-1H-indol-5-yl]carbonyl}azetidin-3-yl)-1-(1,3-thiazol-2-ylcarbonyl)pyrrolidin-3-amine]",–
< 5,88.5,"Cn1cc(Cc2ccc(F)cc2)c2ccc(C(=O)N3CC(N[C@H]4CCN(C(=O)c5nccs5)C4)C3)cc21 [Cpd 221, (3S)-N-(1-{[3-(4-Fluorobenzyl)-1-methyl-1H-indol-6-yl]carbonyl}azetidin-3-yl)-1-(1,3-thiazol-2-ylcarbonyl)pyrrolidin-3-amine]",878
< 5,21.4,"Cn1cc(-c2cccc(F)c2)c2ccc(C(=O)N3CC(N[C@H]4CCN(C(=O)c5nccs5)C4)C3)cc21 [Cpd 205, (3S)-N-(1-{[3-(3-Fluorophenyl)-1-methyl-1H-indol-6-yl]carbonyl}azetidin-3-yl)-1-(1,3-thiazol-2-ylcarbonyl)pyrrolidin-3-amine]",446
723,1960,"O=C(c1cscn1)N1CC[C@H](NC2CN(C(=O)c3cccc4c3CCN4c3ccc(F)cc3)C2)C1 [Cpd 217, (3S)-N-(1-{[1-(4-Fluorophenyl)-2,3-dihydro-1H-indol-4-yl]carbonyl}azetidin-3-yl)-1-(1,3-thiazol-4-ylcarbonyl)pyrrolidin-3-amine]",–
11,56.3,"O=C(c1ccc2c(-c3cccc(F)c3)c[nH]c2c1)N1CC(N[C@H]2CCN(C(=O)c3nccs3)C2)C1 [Cpd 202, (3S)-N-(1-{[3-(3-Fluorophenyl)-1H-indol-6-yl]carbonyl}azetidin-3-yl)-1-(1,3-thiazol-2-ylcarbonyl)pyrrolidin-3-amine]",363
63.9,100,"Cn1cc(-c2cccc(F)c2)c2ccc(C(=O)N3CC(N[C@H]4CCN(C(=O)c5ccccc5)C4)C3)cc21 [Cpd 207, (3S)-N-(1-{[3-(3-Fluorophenyl)-1-methyl-1H-indol-6-yl]carbonyl}azetidin-3-yl)-1-(phenylcarbonyl)pyrrolidin-3-amine]",238
344,186,"O=C(c1ccc2c(-c3cccc(F)c3)c[nH]c2c1)N1CC(N[C@H]2CCN(C(=O)c3ccccc3)C2)C1 [Cpd 204, (3S)-N-(1-{[3-(3-Fluorophenyl)-1H-indol-6-yl]carbonyl}azetidin-3-yl)-1-(phenylcarbonyl)pyrrolidin-3-amine]",–
668,1440,"O=C(c1cscn1)N1CC[C@H](NC2CN(C(=O)c3cccc4c3ccn4-c3ccc(F)cc3)C2)C1 [Cpd 215, (3S)-N-(1-{[1-(4-Fluorophenyl)-1H-indol-4-yl]carbonyl}azetidin-3-yl)-1-(1,3-thiazol-4-ylcarbonyl)pyrrolidin-3-amine]",–
39.2,102,"O=C(c1nccs1)N1CC[C@H](NC2CN(C(=O)c3cc4ccn(-c5ccc(F)cc5)c4cc3Cl)C2)C1 [Cpd 225, (3S)-N-(1-{[6-Chloro-1-(4-fluorophenyl)-1H-indol-5-yl]carbonyl}azetidin-3-yl)-1-(1,3-thiazol-2-ylcarbonyl)pyrrolidin-3-amine]",–
1890,3450,"O=C(c1nccs1)N1CC[C@H](NC2CN(C(=O)c3cn(-c4cccc(F)c4)c4ccccc34)C2)C1 [Cpd 218, (3S)-N-(1-{[1-(3-Fluorophenyl)-1H-indol-3-yl]carbonyl}azetidin-3-yl)-1-(1,3-thiazol-2-ylcarbonyl)pyrrolidin-3-amine]",–
81,122,"Cn1cc(-c2cccc(F)c2)c2ccc(C(=O)N3CC(N[C@H]4CCN(C(=O)c5cscn5)C4)C3)cc21 [Cpd 206, (3S)-N-(1-{[3-(3-Fluorophenyl)-1-methyl-1H-indol-6-yl]carbonyl}azetidin-3-yl)-1-(1,3-thiazol-4-ylcarbonyl)pyrrolidin-3-amine]",267
